Results taken from article PMC11831473 (Advanced Science, 2024).

Target: T1, Tumor necrosis factor receptor-associated factor 4 (TRAF4) (Homo sapiens, UniProt Q9BUZ4)
T1 construct: GFP-TRAF4 (MST)
T1 sequence (Q9BUZ4 1-470): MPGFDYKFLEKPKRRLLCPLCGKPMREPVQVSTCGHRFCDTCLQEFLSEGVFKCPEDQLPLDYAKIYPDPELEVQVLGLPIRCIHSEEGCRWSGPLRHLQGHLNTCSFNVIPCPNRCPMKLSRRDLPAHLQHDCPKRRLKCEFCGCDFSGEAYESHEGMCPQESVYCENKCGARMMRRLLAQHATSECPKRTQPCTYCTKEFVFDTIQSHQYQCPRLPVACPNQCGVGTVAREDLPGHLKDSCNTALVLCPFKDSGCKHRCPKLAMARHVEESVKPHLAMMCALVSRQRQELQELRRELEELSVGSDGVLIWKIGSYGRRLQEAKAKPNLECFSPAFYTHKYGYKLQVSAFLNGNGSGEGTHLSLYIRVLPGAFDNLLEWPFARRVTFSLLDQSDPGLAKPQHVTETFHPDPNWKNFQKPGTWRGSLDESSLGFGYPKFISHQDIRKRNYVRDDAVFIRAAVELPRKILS
Assay: ITC (Kd […]); also MST (Kd […]), competition of biotin-OA pull-down, CETSA
Type: binding

COc1c(O)cc2oc(-c3ccccc3)cc(=O)c2c1O [OA, Oroxylin A]
Kd: 1.1 µM
